Data: patent US8148097B2, “Screening method for identification of compounds with calcium-independent phospholipase A2β (iPLA2β) modulating activity” (Washington University, priority 2005, dated 2012)

Target: T1, iPLA2β (Cricetulus griseus, UniProt A0A3L7I2I8)
T1 construct: (His)6; made in house; host or cells: Sf9 insect cells (baculovirus)
T1 sequence (A0A3L7I2I8 1-752 isoform A0A3L7I2I8-2): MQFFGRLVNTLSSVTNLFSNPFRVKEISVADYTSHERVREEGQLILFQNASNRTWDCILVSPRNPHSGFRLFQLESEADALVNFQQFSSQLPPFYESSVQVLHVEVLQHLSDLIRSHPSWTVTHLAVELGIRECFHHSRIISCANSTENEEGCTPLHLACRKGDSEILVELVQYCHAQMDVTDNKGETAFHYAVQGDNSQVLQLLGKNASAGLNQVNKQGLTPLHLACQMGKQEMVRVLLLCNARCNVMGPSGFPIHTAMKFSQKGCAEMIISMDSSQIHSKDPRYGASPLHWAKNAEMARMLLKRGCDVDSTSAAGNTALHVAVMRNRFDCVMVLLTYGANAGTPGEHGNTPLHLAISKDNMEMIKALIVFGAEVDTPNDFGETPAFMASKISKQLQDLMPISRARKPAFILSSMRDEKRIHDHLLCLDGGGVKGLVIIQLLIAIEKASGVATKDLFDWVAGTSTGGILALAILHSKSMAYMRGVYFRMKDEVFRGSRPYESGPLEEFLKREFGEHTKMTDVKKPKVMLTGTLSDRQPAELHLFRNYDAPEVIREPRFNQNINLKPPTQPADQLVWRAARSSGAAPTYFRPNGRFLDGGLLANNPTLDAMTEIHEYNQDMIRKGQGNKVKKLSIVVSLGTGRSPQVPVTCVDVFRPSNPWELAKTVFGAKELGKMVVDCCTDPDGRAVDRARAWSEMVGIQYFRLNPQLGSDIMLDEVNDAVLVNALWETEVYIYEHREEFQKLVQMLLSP
Experiment: Real-time fluorescence BODIPY-PC assay of iPLA2β phospholipase A2 activity
Format: biochemical
Protocol: FIGS. 11A-11D—Purified iPLA2β+/−Ca^2+/CaM was incubated with POPC/BODIPY-PC (95:5 mol %) host vesicles for 2 min at 37° C. with the indicated concentrations of guest oleoyl-CoA. Relative fluorescence was recorded utilizing 495 nm excitation and 515 nm emission wavelengths as described in Experimental Procedures. FIGS. 11E-11H—ESI-MS analysis of phosphatidylcholine molecular species from the reactions described in panels A and D. Spectra were acquired in the positive ion mode with the indicated internal standards as described in Experimental Procedures. FIG. 11I—Purified iPLA2β in the presence or absence of Ca^2+/CaM was incubated with 1-palmitoyl-2-[1-^14C]-oleoyl-sn-glycero-3-phosphocholine (100 μM) host vesicles with or without guest oleoyl-CoA (10 μM) for 3 min at 37° C. Radiolabeled fatty acid was extracted into butanol, resolved by TLC, and quantified by scintillation spectrometry as described in Experimental Procedures.
Phospholipase A2 and Acyl-CoA Hydrolase Enzymatic Assays—Purified recombinant iPLA2β(His)6 (peptide disclosed as SEQ ID NO: 4) (0.1-1 μg) was incubated with radiolabeled phospholipid or acyl-CoA in 25 mM Tris-HCl, pH 7.2 containing 1 mM EGTA (200 μl final volume) for 1-2 mm at 37° C. […] Incorporation of acyl-CoA into the POPC/DOPS vesicles employed was determined as described previously (64). Reactions were terminated by extraction of the released radiolabeled fatty acids into 100 μl butanol, separation of fatty acids from unreacted substrate by thin layer chromatography, and quantitation by scintillation spectroscopy as previous described (65). For tests examining the effects of acyl-CoAs on calmodulin-mediated inhibition of iPLA2β, phospholipase A2 activity was continuously measured utilizing a SPECTRAmax GEMINI XS Dual-Scanning Microplate Spectrofluorometer (Molecular Devices). […] Fluorescence readings were acquired at 20 sec intervals for 5 mm at 37° C. utilizing excitation/emission wavelengths of 495/515 nm, respectively. […]

- reversal of calmodulin-mediated inhibition of iPLA2β phospholipase A2 activity (5 μM oleoyl-CoA): significant reversal
- activity of CaM-inhibited iPLA2β, % of initial activity (1 mol % oleoyl-CoA, FIG. 11B): ≈ 40%
Structure (SMILES): CCCCCCCC/C=C\CCCCCCCC(=O)SCCNC(=O)CCNC(=O)[C@H](O)C(C)(C)COP(=O)(O)OP(=O)(O)OC[C@H]1O[C@@H](n2cnc3c(N)ncnc32)[C@H](O)[C@@H]1OP(=O)(O)O [oleoyl-CoA]
- effect on CaM mediated inhibition of iPLA2β (2.5-5 mol % oleoyl-CoA, FIG. 11C-D): completely eliminated CaM mediated inhibition
